In ChEMBL document CHEMBL1151449, “In vitro activity of DC-159a, a new broad-spectrum fluoroquinolone, compared with that of other agents against drug-susceptible and -resistant pneumococci” (2008):
In brackets after ≈: the same amount, converted by molar mass.

Key:
Format in all cases: functional
Streptococcus pneumoniae [1] = test: Antibacterial activity against penicillin-resistant and quinolone-susceptible Streptococcus pneumoniae HMC 3583 expressing mefA and harboring I460V mutation in QRDR of ParE gene after 41 passages with gemifloxacin measured after 10 daily antibiotic-free subculturing by multi-step resistance selection technique
Streptococcus pneumoniae [2] = test: Antibacterial activity against Streptococcus pneumoniae HMC 4026 harboring S81Y mutation in quinolone-resistant determining regions of GyrA gene, S79F, K137N mutation in QRDR of ParC gene and I460V mutation in QRDR of ParE gene by agar dilution method
Streptococcus pneumoniae [3] = test: Antibacterial activity against Streptococcus pneumoniae HMC 1060 harboring S81F mutation in quinolone-resistant determining regions of GyrA gene, S79F, K137N mutation in QRDR of ParC gene and I460V mutation in QRDR of ParE gene by agar dilution method
Streptococcus pneumoniae [4] = test: Antibacterial activity against Streptococcus pneumoniae HMC 1055 harboring S81F mutation in quinolone-resistant determining regions of GyrA gene, S79F, K137N mutation in QRDR of ParC gene and I460V mutation in QRDR of ParE gene by agar dilution method
Streptococcus pneumoniae [5] = test: Antibacterial activity against macrolide-, quinolone-susceptible and penicillin-intermediate Streptococcus pneumoniae HMC 100 by broth microdilution method
Streptococcus pneumoniae [6] = test: Antibacterial activity against penicillin-resistant and quinolone-susceptible Streptococcus pneumoniae HMC 3583 expressing mefA after 50 passages by broth microdilution method
Streptococcus pneumoniae [7] = test: Antibacterial activity against penicillin-, quinolone-resistant and macrolide-susceptible Streptococcus pneumoniae HMC 1058 harboring S79F, K137N mutation in quinolone-resistant determining regions of ParC gene and 460V mutation in QRDR of ParE gene by broth microdilution method
Streptococcus pneumoniae [8] = test: Antibacterial activity against penicillin-, macrolide- and quinolone-susceptible Streptococcus pneumoniae HMC 63 after 50 passages by broth microdilution method
Streptococcus pneumoniae [9] = test: Antibacterial activity against Streptococcus pneumoniae HMC 5041 harboring S81F and S79F mutation in quinolone-resistant determining regions of GyrA and ParC genes respectively by agar dilution method
Streptococcus pneumoniae [10] = test: Antibacterial activity against quinolone-resistant Streptococcus pneumoniae […] by agar dilution method
Streptococcus pneumoniae [11] = test: Antibacterial activity against penicillin-resistant and quinolone-susceptible Streptococcus pneumoniae HMC 228 expressing ermB and harboring S81F mutation in quinolone-resistant determining regions of GyrA gene, S79Y mutation in QRDR of ParC gene and I460V mutation in QRDR of ParE gene after 36 passages with moxifloxacin measured after 10 daily antibiotic-free subculturing by multi-step resistance selection technique
Streptococcus pneumoniae [12] = test: Antibacterial activity against azithromycin-resistant Streptococcus pneumoniae […] by agar dilution method
Streptococcus pneumoniae [13] = test: Antibacterial activity against penicillin-susceptible, quinolone-resistant Streptococcus pneumoniae HMC 1072 expressing ermB and harboring S81F mutation in quinolone-resistant determining regions of GyrA gene, S79Y mutation in QRDR of ParC gene and I460V mutation in QRDR of ParE gene after 50 passages by broth microdilution method
Streptococcus pneumoniae [14] = test: Antibacterial activity against Streptococcus pneumoniae HMC 1062 harboring S81F mutation in quinolone-resistant determining regions of GyrA gene, S79F mutation in QRDR of ParC gene and I460V mutation in QRDR of ParE gene by agar dilution method
Streptococcus pneumoniae [15] = test: Antibacterial activity against macrolide-, quinolone-susceptible and penicillin-intermediate Streptococcus pneumoniae HMC 100 after 50 passages by broth microdilution method
Streptococcus pneumoniae [16] = test: Antibacterial activity against Streptococcus pneumoniae HMC 1076 harboring S81F mutation in quinolone-resistant determining regions of GyrA gene, D83N mutation in QRDR of ParC gene and I460V mutation in QRDR of ParE gene by agar dilution method
Streptococcus pneumoniae [17] = test: Antibacterial activity against macrolide-, quinolone-susceptible and penicillin-intermediate Streptococcus pneumoniae HMC 100 harboring S79Y mutation in quinolone-resistant determining regions of ParC gene after 34 passages with gemifloxacin measured after 10 daily antibiotic-free subculturing by multi-step resistance selection technique
Streptococcus pneumoniae [18] = test: Antibacterial activity against Streptococcus pneumoniae HMC 3041 after 50 passages by broth microdilution method
Streptococcus pneumoniae [19] = test: Antibacterial activity against penicillin-, macrolide- and quinolone-susceptible Streptococcus pneumoniae HMC 63 harboring S81F mutation in quinolone-resistant determining regions of GyrA gene, D83Y mutation in QRDR of ParC gene and I460V mutation in QRDR of ParE gene after 34 passages with gemifloxacin measured after 10 daily antibiotic-free subculturing by multi-step resistance selection technique
Streptococcus pneumoniae [20] = test: Antibacterial activity against penicillin-, macrolide- and quinolone-susceptible Streptococcus pneumoniae HMC 63 by broth microdilution method
Streptococcus pneumoniae [21] = test: Antibacterial activity against Streptococcus pneumoniae HMC 1058 harboring S79F, K137N mutation in quinolone-resistant determining regions of ParC gene and 460V mutation in QRDR of ParE gene by agar dilution method
Streptococcus pneumoniae [22] = test: Antibacterial activity against Streptococcus pneumoniae HMC 1074 harboring S81F mutation in quinolone-resistant determining regions of GyrA gene, S79F mutation in QRDR of ParC gene and I460V mutation in QRDR of ParE gene by agar dilution method
Streptococcus pneumoniae [23] = test: Antibacterial activity against Streptococcus pneumoniae HMC 1151 harboring D83N, K137N mutation in quinolone-resistant determining regions of ParC gene and I460V mutation in QRDR of ParE gene showing efflux to ciprofloxacin, gemifloxacin by agar dilution method
Streptococcus pneumoniae [24] = test: Antibacterial activity against penicillin-resistant Streptococcus pneumoniae […] by agar dilution method
Streptococcus pneumoniae [25] = test: Antibacterial activity against penicillin-resistant and quinolone-susceptible Streptococcus pneumoniae HMC 3583 expressing mefA and harboring S81F mutation in quinolone-resistant determining regions of GyrA gene, D83N mutation in QRDR of ParC gene and I460V mutation in QRDR of ParE gene after 44 passages with levofloxacin measured after 10 daily antibiotic-free subculturing by multi-step resistance selection technique
Streptococcus pneumoniae [26] = test: Antibacterial activity against penicillin- and quinolone-susceptible Streptococcus pneumoniae HMC 5055 expressing mefA by broth microdilution method
Streptococcus pneumoniae [27] = test: Antibacterial activity against quinolone-susceptible and penicillin-intermediate Streptococcus pneumoniae HMC 441 expressing ermB by broth microdilution method
Streptococcus pneumoniae [28] = test: Antibacterial activity against penicillin-, quinolone-resistant Streptococcus pneumoniae HMC 1541 harboring mutation in L4 protein by broth microdilution method
Streptococcus pneumoniae [29] = test: Antibacterial activity against Streptococcus pneumoniae HMC 1070 harboring S81F mutation in quinolone-resistant determining regions of GyrA gene, D83N mutation in QRDR of ParC gene and I460V mutation in QRDR of ParE gene by agar dilution method
Streptococcus pneumoniae [30] = test: Antibacterial activity against Streptococcus pneumoniae HMC 2536 harboring S81Y mutation in quinolone-resistant determining regions of GyrA gene, S79F, K137N mutation in QRDR of ParC gene and I460V mutation in QRDR of ParE gene by agar dilution method

COc1c(N2CC3(CC3)[C@](C)(N)C2)c(F)cc2c(=O)c(C(=O)O)cn([C@@H]3C[C@@H]3F)c12.O
MIC (Streptococcus pneumoniae [1]): 1 µg/mL | MIC (Streptococcus pneumoniae [2]): 1 µg/mL | MIC (Streptococcus pneumoniae [3]): 0.5 µg/mL | MIC (Streptococcus pneumoniae [4]): 1 µg/mL | MIC (Streptococcus pneumoniae [5]): 0.12 µg/mL | MIC (Streptococcus pneumoniae [6]): 1 µg/mL | MIC (Streptococcus pneumoniae [7]): 0.5 µg/mL | MIC (Streptococcus pneumoniae [8]): 0.125 µg/mL | MIC (Streptococcus pneumoniae [9]): 1 µg/mL | MIC50 (Streptococcus pneumoniae [10]): 1 µg/mL | MIC90 (Streptococcus pneumoniae [10]): 1 µg/mL | MIC (Streptococcus pneumoniae [11]): 1 µg/mL | MIC50 (Streptococcus pneumoniae [12]): 0.12 µg/mL | MIC90 (Streptococcus pneumoniae [12]): 0.12 µg/mL | MIC (Streptococcus pneumoniae [13]): 1 µg/mL | MIC (Streptococcus pneumoniae [14]): 1 µg/mL | MIC (Streptococcus pneumoniae [15]): 0.5 µg/mL | MIC (Streptococcus pneumoniae [16]): 0.5 µg/mL | MIC (Streptococcus pneumoniae [17]): 0.5 µg/mL | MIC (Streptococcus pneumoniae [18]): 0.125 µg/mL | MIC (Streptococcus pneumoniae [19]): 1 µg/mL | MIC (Streptococcus pneumoniae [20]): 0.12 µg/mL | MIC (Streptococcus pneumoniae [21]): 0.5 µg/mL | MIC (Streptococcus pneumoniae [22]): 0.5 µg/mL | MIC (Streptococcus pneumoniae [23]): 0.25 µg/mL | MIC50 (Streptococcus pneumoniae [24]): 0.12 µg/mL | MIC90 (Streptococcus pneumoniae [24]): 0.5 µg/mL | MIC (Streptococcus pneumoniae [25]): 1 µg/mL | MIC (Streptococcus pneumoniae [26]): 0.12 µg/mL | MIC (Streptococcus pneumoniae [27]): 0.12 µg/mL | MIC (Streptococcus pneumoniae [28]): 1 µg/mL | MIC (Streptococcus pneumoniae [29]): 1 µg/mL | MIC (Streptococcus pneumoniae [30]): 1 µg/mL

COc1c(N2C[C@@H]3CCCN[C@@H]3C2)c(F)cc2c(=O)c(C(=O)O)cn(C3CC3)c12 [MOXIFLOXACIN]
MIC (Streptococcus pneumoniae [1]): 0.5 µg/mL (≈ 1.25 µM) | MIC (Streptococcus pneumoniae [2]): 4 µg/mL (≈ 9.96 µM) | MIC (Streptococcus pneumoniae [3]): 2 µg/mL (≈ 4.98 µM) | MIC (Streptococcus pneumoniae [4]): 4 µg/mL (≈ 9.96 µM) | MIC (Streptococcus pneumoniae [5]): 0.25 µg/mL (≈ 0.623 µM) | MIC (Streptococcus pneumoniae [6]): 0.5 µg/mL (≈ 1.25 µM) | MIC (Streptococcus pneumoniae [7]): 2 µg/mL (≈ 4.98 µM) | MIC (Streptococcus pneumoniae [8]): 0.25 µg/mL (≈ 0.623 µM) | MIC (Streptococcus pneumoniae [9]): 4 µg/mL (≈ 9.96 µM) | MIC50 (Streptococcus pneumoniae [10]): 4 µg/mL (≈ 9.96 µM) | MIC90 (Streptococcus pneumoniae [10]): 4 µg/mL (≈ 9.96 µM) | MIC (Streptococcus pneumoniae [11]): 2 µg/mL (≈ 4.98 µM) | MIC (Streptococcus pneumoniae [13]): 4 µg/mL (≈ 9.96 µM) | MIC (Streptococcus pneumoniae [14]): 4 µg/mL (≈ 9.96 µM) | MIC (Streptococcus pneumoniae [16]): 2 µg/mL (≈ 4.98 µM) | MIC (Streptococcus pneumoniae [17]): 2 µg/mL (≈ 4.98 µM) | MIC (Streptococcus pneumoniae [18]): 0.25 µg/mL (≈ 0.623 µM) | MIC (Streptococcus pneumoniae [19]): 4 µg/mL (≈ 9.96 µM) | MIC (Streptococcus pneumoniae [20]): 0.25 µg/mL (≈ 0.623 µM) | MIC (Streptococcus pneumoniae [21]): 0.5 µg/mL (≈ 1.25 µM) | MIC (Streptococcus pneumoniae [22]): 2 µg/mL (≈ 4.98 µM) | MIC (Streptococcus pneumoniae [23]): 0.25 µg/mL (≈ 0.623 µM) | MIC (Streptococcus pneumoniae [25]): 4 µg/mL (≈ 9.96 µM) | MIC (Streptococcus pneumoniae [26]): 0.25 µg/mL (≈ 0.623 µM) | MIC (Streptococcus pneumoniae [27]): 0.12 µg/mL (≈ 0.299 µM) | MIC (Streptococcus pneumoniae [28]): 4 µg/mL (≈ 9.96 µM) | MIC (Streptococcus pneumoniae [29]): 4 µg/mL (≈ 9.96 µM) | MIC (Streptococcus pneumoniae [30]): 4 µg/mL (≈ 9.96 µM)

COc1c(N2CCNC(C)C2)c(F)cc2c(=O)c(C(=O)O)cn(C3CC3)c12 (stereo not drawn) [GATIFLOXACIN]
MIC (Streptococcus pneumoniae [1]): 2 µg/mL (≈ 5.33 µM) | MIC (Streptococcus pneumoniae [2]): 16 µg/mL (≈ 42.6 µM) | MIC (Streptococcus pneumoniae [3]): 4 µg/mL (≈ 10.7 µM) | MIC (Streptococcus pneumoniae [4]): 8 µg/mL (≈ 21.3 µM) | MIC (Streptococcus pneumoniae [5]): 0.5 µg/mL (≈ 1.33 µM) | MIC (Streptococcus pneumoniae [7]): 4 µg/mL (≈ 10.7 µM) | MIC (Streptococcus pneumoniae [8]): 1 µg/mL (≈ 2.66 µM) | MIC (Streptococcus pneumoniae [9]): 4 µg/mL (≈ 10.7 µM) | MIC50 (Streptococcus pneumoniae [10]): 8 µg/mL (≈ 21.3 µM) | MIC90 (Streptococcus pneumoniae [10]): 8 µg/mL (≈ 21.3 µM) | MIC (Streptococcus pneumoniae [11]): 16 µg/mL (≈ 42.6 µM) | MIC50 (Streptococcus pneumoniae [12]): 0.5 µg/mL (≈ 1.33 µM) | MIC90 (Streptococcus pneumoniae [12]): 0.5 µg/mL (≈ 1.33 µM) | MIC (Streptococcus pneumoniae [13]): 8 µg/mL (≈ 21.3 µM) | MIC (Streptococcus pneumoniae [14]): 16 µg/mL (≈ 42.6 µM) | MIC (Streptococcus pneumoniae [15]): 0.5 µg/mL (≈ 1.33 µM) | MIC (Streptococcus pneumoniae [16]): 4 µg/mL (≈ 10.7 µM) | MIC (Streptococcus pneumoniae [17]): 4 µg/mL (≈ 10.7 µM) | MIC (Streptococcus pneumoniae [18]): 0.5 µg/mL (≈ 1.33 µM) | MIC (Streptococcus pneumoniae [19]): 8 µg/mL (≈ 21.3 µM) | MIC (Streptococcus pneumoniae [20]): 0.5 µg/mL (≈ 1.33 µM) | MIC (Streptococcus pneumoniae [21]): 2 µg/mL (≈ 5.33 µM) | MIC (Streptococcus pneumoniae [22]): 4 µg/mL (≈ 10.7 µM) | MIC (Streptococcus pneumoniae [23]): 2 µg/mL (≈ 5.33 µM) | MIC50 (Streptococcus pneumoniae [24]): 0.5 µg/mL (≈ 1.33 µM) | MIC90 (Streptococcus pneumoniae [24]): 4 µg/mL (≈ 10.7 µM) | MIC (Streptococcus pneumoniae [25]): 4 µg/mL (≈ 10.7 µM) | MIC (Streptococcus pneumoniae [26]): 0.25 µg/mL (≈ 0.666 µM) | MIC (Streptococcus pneumoniae [27]): 0.25 µg/mL (≈ 0.666 µM) | MIC (Streptococcus pneumoniae [28]): 4 µg/mL (≈ 10.7 µM) | MIC (Streptococcus pneumoniae [29]): 4 µg/mL (≈ 10.7 µM) | MIC (Streptococcus pneumoniae [30]): 16 µg/mL (≈ 42.6 µM)
